Assay results taken from US10112978B2, “Peptide and use thereof” (OSAKA UNIVERSITY, priority 2014, dated 2018).

Tested on: inflammasomes
Experiment: Inflammasome activation: IL-1β production in THP-1 cells with or without LPS priming, cathepsin B inhibitor or caspase-1 inhibitor
Assay type: cell-based, human
Description: THP-1 cells were suspended at 1×10^6 cells/mL in RPMI1640 medium containing 1 μg/mL LPS and 10% FBS, and incubated in a CO2 incubator for 3 hours for cell priming. The cell suspension was centrifugated, the cells were resuspended at 1×10^6 cells/mL in RPMI1640 medium containing 10% FBS, and the cell suspension was added to a 96-well plate at 100 μL/well. The cathepsin B inhibitor Ca-074-Me (final concentration: 10 μM), the caspase-1 inhibitor Z-YVAD-FMK (final concentration: 10 μM) or the medium was added to the wells. After that, OSK-1 or the medium was added to the wells, and the cells were cultured in a CO2 incubator. After 16 hours, the culture supernatant was harvested, and the cytokine concentrations in the supernatant were measured by ELISA.

With “ELKLIFLHRLKRLRKRLKRK (Ac-ELKLIFLHRLKRLRKRLKRK-NH2) [OSK-1]” the IL-1β production (LPS-primed THP-1 cells versus non-primed THP-1 cells, 16 hours) was “induced the production of IL-1β only in the LPS-primed THP-1 cells”, the IL-1β production (LPS-primed THP-1 cells, in the presence of caspase-1 inhibitor Z-YVAD-FMK 10 μM) was “also inhibited by Z-YVAD-FMK” and the IL-1β production (LPS-primed THP-1 cells, in the presence of cathepsin B inhibitor Ca-074-Me 10 μM) was “inhibited by Ca-074-Me”.
